“Also recorded” adds a separate entry of the source. Read-outs that look alike come from different tables or passages of the source.

We go through four molecules from patent EP3578559B1, “DYE FOR FLUORESCENT STAINING OF STRATUM CORNEUM, MANNER OF ITS SYNTHESIS AND APPLICATION IN MICROSCOPY, INCLUDING IDENTIFICATION OF ROUTES OF SUBSTANCES PENETRATION TO THE SKIN AND ASSESSMENT OF STRUCTURAL DISORDERS OF THIS LAYER” (Gdanski Uniwersytet Medyczny, priority 2018, dated 2019).

Data set [1] can be described thus: Octanol/water partition coefficient (logP), experimentally assigned. To be noted: for octanol/water division ratio: ratio of concentrations of the dye in octanol/water.
For another data set, the system named is stratum corneum. Nature of the data set: Fluorescent microscopy staining of stratum corneum of human skin ex vivo. On the procedure:
To obtain microscopic images of stratum corneum in a fluorescent microscope (Nikon Eclipse 50, Japan; the mercury lamp; the filter for wavelength: 330-380 nm; software for data acquisition NIS Elements AR 3.2.) Standard methodology was applied. A fragment of human skin ex vivo (1 cm x 1 cm) was subject to heat separation procedure (temperature 60 °C; 30 seconds) in order to separate epidermis (including stratum corneum) from the dermis. Fragments of the epidermis were placed on a microscopic glass, fluorescent dyes were applied and then incubated in thermostat for 10 minutes at 37 °C. After this time, the excess of dyes was removed by the use of laboratory absorption blotting paper and images of microscopic magnification were recorded in 10 x magnification of the lens, using the exposure time of 15-600 ms.

The nature of data set [2]: Fluorescence optical properties of the dye (Stokes shift, absorption/emission). The format is physicochemical.
For data set [3] the following is noted: commercial dye; cited from earlier work.
The mark [4] stands for this setting: post application of water / hydrophilic compounds, 10x.

On to `CC[N+]1(CC)CN2C(=N1)C(C(=O)[O-])=Cc1ccccc12` [P4], for which the octanol/water division ratio in data set [1] was 0,01. This molecule also came in with a logP in the data set “physchem” of -1.9. Also, the “characterization of hydrophilicity/lipophilicity with regard to diffusion to stratum corneum” value in the data set with stratum corneum (on the basis of the conducted research) was “too hydrophilic”. Also, the “staining of the lipids inside the lipid matrix or corneocytes proteins” value in the data set with stratum corneum (stratum corneum structures) was “lack of staining”.

With `CCCCCCOC(=O)c1ccccc1-c1c2ccc(=[N+](CC)CC)cc-2oc2cc(N(CC)CC)ccc12` [RBHE, Rhodamine hexylester], the “microscope image quality of stained structures” value in the data set on stratum corneum (after application of siloxane with a cyclic structure, compared with SAFQ8MeAKT, 10x) was “not as explicit”. Further, the staining of canyons entry in the data set on stratum corneum (lipophilic compounds (siloxane D4), 10x) is “does not stain canyons so vividly”; in the data set with stratum corneum (setting [4]), “canyons are not visible; also recorded: does not dye canyons”.

For the molecule `CC[N+]1(CC)CN2C(=N1)C(C(=O)ON1C(=O)CCC1=O)=Cc1ccc(C)cc12.[Cl-]` [SAFQ8MeAKT, 4-((2,5-dioxopyrrolidin-1-yloxy)carbonyl)-2,2-diethyl-8-methyl-1,2-dihydro-[1,2,4]triazolo[4,3-a]quinolin-2-ium chloride], the octanol/water division ratio in data set [1] is listed as 0,37. Also, the “greater lipophilicity than P4 dye” value in data set [1] (relative to P4 dye) is given as “approx. 40 times”. Also, in data set [2], the Stokes shift is 95 nm, the characteristic absorption is reported as 365 nm and the characteristic emission stood at 460 nm. The molecule further came in with a logP in the data set “physchem” of -0.43. For the same molecule, in the data set with stratum corneum (10x), the staining of corneocytes result is reported as “staining of the inside of corneocytes”. In addition, the staining of canyons result in the data set with stratum corneum (setting [4]) is given as “canyons are stained”.

Consider `CCN(CC)c1ccc2c(-c3ccc(S(=O)(=O)O)cc3S(=O)(=O)[O-])c3ccc(=[N+](CC)CC)cc-3oc2c1` [SRB, Sulforhodamines B], for which, in data set [3], the characteristic absorption was 565 nm and the characteristic emission is 590 nm. Moreover, the staining of corneocytes entry with stratum corneum (10x) is recorded as “noticeably stains corneocytes”. The staining of canyons entry in the data set with stratum corneum (dye alone (Fig. 11), 10x) is reported as “does not dye the canyons”.

In general, logP refers to a log measure of how a compound divides between an organic and an aqueous phase. Higher therefore signals higher lipophilicity.
